Measured values published in ChEMBL document CHEMBL4680282, “Repurposing of Drugs-The Ketamine Story” (J Med Chem, 2020).
pIC50, pKi: −log10 of the molar value. Values after ≈ are worked out from the molar mass of the structure shown.

Legend:
Homo sapiens [1] = assay: Anesthetic activity in SC dosed human assessed as time duration for onset of action; type: functional
[2] = Bioavailability in REC dosed human; type: ADME, organism-based; settings: in vivo
[3] = Elimination half life in human; type: ADME; settings: read-out: beta t1/2 (converted)
Glutamate NMDA receptor [4] = assay: Displacement of [3H]-MK801 from NMDA receptor in rat brain membranes incubated for 2 hrs in presence of Mg2+/glumate/glycine by radioligand binding assay; type: cell membranes, Membrane
[5] = target: Glutamate [NMDA] receptor; assay: Displacement of [3H]-MK801 from NMDA receptor in human frontal cortex in presence of Mg2+ by scintillation counting method; type: tissue-based
[6] = target: Glutamate NMDA receptor; Grin1/Grin2b (Rattus norvegicus, UniProt P35439+Q00960); assay: Displacement of [3H]-MK801 from rat brain GluN1/GluN2B expressed in HEK293 cells; type: cell-based
Glutamate NMDA receptor; Grin1/Grin2b, sequence (Q00960 whole entry, other chains not shown): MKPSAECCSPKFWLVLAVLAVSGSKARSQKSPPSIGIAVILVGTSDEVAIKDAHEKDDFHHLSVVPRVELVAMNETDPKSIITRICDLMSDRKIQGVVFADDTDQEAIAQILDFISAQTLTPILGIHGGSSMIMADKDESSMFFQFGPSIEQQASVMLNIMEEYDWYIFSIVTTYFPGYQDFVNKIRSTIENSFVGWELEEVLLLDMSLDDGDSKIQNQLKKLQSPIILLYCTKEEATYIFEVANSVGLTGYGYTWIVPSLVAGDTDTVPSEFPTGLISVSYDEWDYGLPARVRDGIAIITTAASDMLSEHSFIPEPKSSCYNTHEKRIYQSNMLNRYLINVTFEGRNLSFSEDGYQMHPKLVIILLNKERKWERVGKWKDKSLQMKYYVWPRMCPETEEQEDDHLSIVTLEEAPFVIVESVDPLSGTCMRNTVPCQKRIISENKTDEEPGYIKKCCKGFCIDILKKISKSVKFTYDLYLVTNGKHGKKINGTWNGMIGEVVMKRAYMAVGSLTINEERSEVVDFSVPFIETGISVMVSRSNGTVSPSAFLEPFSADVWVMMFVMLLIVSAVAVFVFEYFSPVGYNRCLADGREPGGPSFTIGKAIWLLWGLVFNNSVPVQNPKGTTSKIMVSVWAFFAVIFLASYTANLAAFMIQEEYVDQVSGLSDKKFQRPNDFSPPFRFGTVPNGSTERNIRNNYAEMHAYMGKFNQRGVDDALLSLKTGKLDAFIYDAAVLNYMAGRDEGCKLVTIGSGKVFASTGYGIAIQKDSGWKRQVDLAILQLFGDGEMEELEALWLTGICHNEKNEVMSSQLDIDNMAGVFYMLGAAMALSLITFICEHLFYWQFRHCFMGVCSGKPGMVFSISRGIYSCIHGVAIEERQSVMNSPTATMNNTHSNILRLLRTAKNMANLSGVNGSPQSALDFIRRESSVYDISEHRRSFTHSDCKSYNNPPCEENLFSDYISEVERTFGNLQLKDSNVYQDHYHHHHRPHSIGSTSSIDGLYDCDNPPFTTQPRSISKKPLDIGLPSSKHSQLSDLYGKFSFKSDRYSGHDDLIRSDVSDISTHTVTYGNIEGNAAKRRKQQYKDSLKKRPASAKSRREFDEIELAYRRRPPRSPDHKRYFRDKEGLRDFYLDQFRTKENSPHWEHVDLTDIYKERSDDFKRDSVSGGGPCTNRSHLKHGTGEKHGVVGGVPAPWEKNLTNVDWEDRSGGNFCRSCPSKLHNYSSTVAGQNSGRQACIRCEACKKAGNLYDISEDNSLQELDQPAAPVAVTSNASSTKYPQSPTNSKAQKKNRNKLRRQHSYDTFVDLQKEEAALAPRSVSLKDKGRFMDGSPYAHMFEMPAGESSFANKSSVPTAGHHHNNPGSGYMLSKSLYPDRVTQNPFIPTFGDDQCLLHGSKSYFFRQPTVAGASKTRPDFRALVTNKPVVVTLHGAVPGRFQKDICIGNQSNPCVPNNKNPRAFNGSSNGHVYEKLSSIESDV

[7] = Protein binding in human plasma; type: ADME, cell-free; settings: read-out: PPB (converted)
[8] = target: Glutamate NMDA receptor; GRIN1/GRIN2A (Homo sapiens, UniProt Q05586+Q12879); assay: Displacement of [3H]-MK801 from human forebrain […] expressed in HEK293 cells by […]; type: cell-based
Glutamate NMDA receptor; GRIN1/GRIN2A, sequence (Q12879 whole entry, other chains not shown): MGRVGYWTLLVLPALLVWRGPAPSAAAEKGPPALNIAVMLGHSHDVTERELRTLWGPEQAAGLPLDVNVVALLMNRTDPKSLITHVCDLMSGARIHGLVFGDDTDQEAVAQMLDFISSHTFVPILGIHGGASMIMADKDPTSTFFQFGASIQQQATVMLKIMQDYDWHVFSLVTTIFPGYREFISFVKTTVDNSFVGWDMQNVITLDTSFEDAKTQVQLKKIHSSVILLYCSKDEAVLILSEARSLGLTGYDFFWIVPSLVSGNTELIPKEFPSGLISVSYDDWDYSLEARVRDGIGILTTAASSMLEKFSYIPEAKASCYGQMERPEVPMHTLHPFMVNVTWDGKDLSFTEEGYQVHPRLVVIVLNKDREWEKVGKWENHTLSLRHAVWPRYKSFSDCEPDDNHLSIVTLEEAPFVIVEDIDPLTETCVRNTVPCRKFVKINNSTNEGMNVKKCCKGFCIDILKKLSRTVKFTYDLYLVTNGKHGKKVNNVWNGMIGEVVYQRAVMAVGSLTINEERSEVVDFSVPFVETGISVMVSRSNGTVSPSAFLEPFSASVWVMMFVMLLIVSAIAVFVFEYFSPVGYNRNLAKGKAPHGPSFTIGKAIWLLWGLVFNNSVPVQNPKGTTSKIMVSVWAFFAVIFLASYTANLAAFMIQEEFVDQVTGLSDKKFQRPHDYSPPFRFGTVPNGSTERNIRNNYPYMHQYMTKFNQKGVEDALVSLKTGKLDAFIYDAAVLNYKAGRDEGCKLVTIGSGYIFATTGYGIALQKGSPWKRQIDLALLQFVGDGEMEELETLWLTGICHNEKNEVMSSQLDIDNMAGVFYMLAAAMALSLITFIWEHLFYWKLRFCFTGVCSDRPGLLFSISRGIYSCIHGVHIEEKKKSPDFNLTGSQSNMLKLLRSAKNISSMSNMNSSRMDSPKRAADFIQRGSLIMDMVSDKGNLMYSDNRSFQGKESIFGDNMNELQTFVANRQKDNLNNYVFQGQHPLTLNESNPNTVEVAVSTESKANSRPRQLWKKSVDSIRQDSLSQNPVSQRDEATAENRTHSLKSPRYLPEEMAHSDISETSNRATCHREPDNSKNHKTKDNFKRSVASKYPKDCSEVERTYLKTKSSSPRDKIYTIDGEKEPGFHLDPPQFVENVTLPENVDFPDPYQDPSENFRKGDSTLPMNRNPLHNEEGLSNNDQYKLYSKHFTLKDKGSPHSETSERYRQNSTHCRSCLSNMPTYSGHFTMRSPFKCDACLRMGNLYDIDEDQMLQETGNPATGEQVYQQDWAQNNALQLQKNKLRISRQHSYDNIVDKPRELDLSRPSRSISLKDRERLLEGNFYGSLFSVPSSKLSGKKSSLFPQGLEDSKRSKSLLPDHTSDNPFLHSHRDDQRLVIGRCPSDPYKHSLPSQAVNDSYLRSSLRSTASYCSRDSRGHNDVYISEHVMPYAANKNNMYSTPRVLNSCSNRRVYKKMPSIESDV

Glutamate NMDA receptor [9] = assay: Displacement of [3H]-MK801 from NMDA receptor in Sprague-Dawley rat cerebellum by liquid scintillation counting method; type: tissue-based
[10] = Drug elimination in human urine assessed as metabolically unchanged compound; type: ADME; settings: read-out: Drug excretion
Homo sapiens [11] = assay: Anesthetic activity in IN dosed human assessed as time duration for onset of action; type: functional
Glutamate NMDA receptor [12] = assay: Displacement of [3H]-MK801 from NMDA receptor in rat brain membranes incubated for 2 hrs in presence of Mg2+ by radioligand binding assay; type: cell membranes, Membrane
[13] = Aqueous solubility of the compound; type: physicochemical
Glutamate NMDA receptor [14] = assay: Inhibition of NMDAR-mediated excitatory postsynaptic potential in Sprague-Dawley rat hippocampus CA1 region by electrophysiology; set-up: species or system Brain
Glutamate NMDA receptor [15] = assay: Displacement of [3H]-MK801 from NMDA receptor in rat brain membranes incubated for 45 mins in presence of Mg2+ by scintillation counting method; type: cell membranes, Membrane
Glutamate NMDA receptor [16] = assay: Displacement of [3H]-MK801 from NMDA receptor in rat whole brain homogenate incubated for 2 hrs in presence of Mg2+ by liquid scintillation counting method; type: tissue-based
[17] = Bioavailability in SL dosed human; type: ADME, organism-based; settings: in vivo
Glutamate NMDA receptor [18] = assay: Displacement of [3H]-MK801 from NMDA receptor in rat spinal cord incubated for 45 mins by liquid scintillation spectrometry; type: tissue-based
[19] = target: Glutamate [NMDA] receptor; assay: Displacement of [3H]-MK801 from NMDA receptor in human cortex incubated for 2 hrs in presence of Mg2+ by scintillation counting method; type: tissue-based
Homo sapiens [20] = assay: Anesthetic activity in IM dosed human assessed as time duration of action; type: functional
[21] = Displacement of [3H]-MK801 from NMDA receptor in dog cerebral cortex incubated for 45 mins by liquid scintillation spectrometry; type: tissue-based, Canis lupus familiaris
[22] = Bioavailability in IN dosed human; type: ADME, organism-based; settings: in vivo, inhaled or intranasal
[23] = Displacement of [3H]-MK801 from NMDA receptor in ICR Harlan mouse brain homogenate incubated for 45 mins by liquid scintillation spectrometry; type: tissue-based
Glutamate NMDA receptor [24] = assay: Displacement of [3H]-MK801 from NMDA receptor in Sprague-Dawley rat brain synaptic membrane incubated for 60 mins by liquid scintillation counting method; type: cell membranes
Glutamate NMDA receptor [25] = assay: Displacement of [3H]-MK801 from NMDA receptor in rat striatum incubated for 2 hrs in presence of Mg2+ by scintillation counting method; type: tissue-based
Glutamate NMDA receptor [26] = assay: Displacement of [3H]-MK801 from NMDA receptor in Sprague-Dawley rat cerebral cortex by liquid scintillation counting method; type: tissue-based
[27] = Oral bioavailability in human; type: ADME, organism-based; settings: in vivo
[28] = Bioavailability in human at 0.5 mg/kg, IM; type: ADME, organism-based; settings: in vivo
Homo sapiens [29] = assay: Anesthetic activity in IM dosed human assessed as time duration for onset of action; type: functional
[30] = Displacement of [3H]-MK801 from NMDA receptor in Dunkin-Hartley guinea pig brain homogenate incubated for 45 mins by liquid scintillation spectrometry; type: tissue-based, Cavia porcellus
Glutamate NMDA receptor [31] = assay: Displacement of [3H]-MK801 from NMDA receptor in rat forebrain homogenate incubated for 2 hrs in presence of Mg2+ by liquid scintillation counting method; type: tissue-based
Homo sapiens [32] = assay: Anesthetic activity in po dosed human assessed as time duration of action; type: functional
[33] = Cmax in human at 2 mg/kg, iv measured after 1 mins; type: ADME, organism-based; set-up: route intravenous, time 1 min, dose 2 mg/kg; settings: in vivo
[34] = target: Glutamate NMDA receptor; Grin1/Grin2a (Rattus norvegicus, UniProt P35439+Q00959); assay: Displacement of [3H]-MK801 from rat brain GluN1/GluN2A expressed in HEK293 cells; type: cell-based
Glutamate NMDA receptor; Grin1/Grin2a, sequence (Q00959 whole entry, other chains not shown): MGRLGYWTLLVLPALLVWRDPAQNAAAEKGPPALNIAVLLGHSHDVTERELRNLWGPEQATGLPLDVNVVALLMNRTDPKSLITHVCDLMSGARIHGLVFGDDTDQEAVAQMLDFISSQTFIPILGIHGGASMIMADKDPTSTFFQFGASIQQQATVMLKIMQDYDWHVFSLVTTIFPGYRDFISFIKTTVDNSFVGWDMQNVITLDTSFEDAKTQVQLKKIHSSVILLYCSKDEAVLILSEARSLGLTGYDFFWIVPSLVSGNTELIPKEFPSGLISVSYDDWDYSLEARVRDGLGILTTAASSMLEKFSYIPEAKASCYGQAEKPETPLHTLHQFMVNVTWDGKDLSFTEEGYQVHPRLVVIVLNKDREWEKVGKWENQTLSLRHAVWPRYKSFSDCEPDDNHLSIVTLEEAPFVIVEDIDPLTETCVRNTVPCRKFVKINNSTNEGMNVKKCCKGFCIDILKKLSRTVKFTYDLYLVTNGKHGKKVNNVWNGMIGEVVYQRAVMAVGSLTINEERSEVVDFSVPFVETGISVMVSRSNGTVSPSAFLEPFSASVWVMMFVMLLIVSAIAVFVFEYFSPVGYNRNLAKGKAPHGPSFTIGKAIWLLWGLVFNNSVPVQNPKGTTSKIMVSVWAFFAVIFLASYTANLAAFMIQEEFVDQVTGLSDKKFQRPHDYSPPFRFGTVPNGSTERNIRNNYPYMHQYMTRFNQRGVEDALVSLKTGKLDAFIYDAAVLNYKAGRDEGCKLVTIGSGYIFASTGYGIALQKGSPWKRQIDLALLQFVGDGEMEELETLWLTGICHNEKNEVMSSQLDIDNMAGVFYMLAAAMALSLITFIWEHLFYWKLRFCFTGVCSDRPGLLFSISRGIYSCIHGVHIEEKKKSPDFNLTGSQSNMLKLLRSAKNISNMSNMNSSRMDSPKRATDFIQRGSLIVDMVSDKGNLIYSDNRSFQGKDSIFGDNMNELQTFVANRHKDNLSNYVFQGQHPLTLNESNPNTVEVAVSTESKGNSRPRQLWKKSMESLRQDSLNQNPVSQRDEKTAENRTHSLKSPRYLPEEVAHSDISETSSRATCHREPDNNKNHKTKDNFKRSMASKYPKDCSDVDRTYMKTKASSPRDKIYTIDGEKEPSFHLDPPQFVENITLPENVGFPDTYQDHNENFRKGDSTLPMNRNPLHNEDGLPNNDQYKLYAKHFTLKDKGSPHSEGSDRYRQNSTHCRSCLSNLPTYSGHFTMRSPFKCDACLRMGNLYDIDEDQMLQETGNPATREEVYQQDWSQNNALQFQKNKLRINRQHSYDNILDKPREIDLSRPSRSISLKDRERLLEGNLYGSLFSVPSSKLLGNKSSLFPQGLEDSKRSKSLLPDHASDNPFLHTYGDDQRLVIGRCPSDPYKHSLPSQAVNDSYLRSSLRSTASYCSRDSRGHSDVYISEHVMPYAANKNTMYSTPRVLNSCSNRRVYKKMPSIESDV

Glutamate NMDA receptor [35] = assay: Displacement of [3H]-MK801 from NMDA receptor in Sprague-Dawley rat cortex incubated for 2 hrs in presence of Mg2+ by scintillation counting method; type: tissue-based
Glutamate NMDA receptor [36] = assay: Displacement of [3H]-MK801 from NMDA receptor in rat brain membranes incubated for 60 mins in presence of Mg2+ by liquid scintillation counting method; type: cell membranes, Membrane
Glutamate NMDA receptor [37] = assay: Displacement of [3H]-TCP from NMDA receptor in rat brain membranes incubated for 45 mins in presence of Mg2+ by scintillation counting method; type: cell membranes, Membrane
[38] = Bioavailability in iv dosed human; type: ADME, organism-based; settings: in vivo
Homo sapiens [39] = assay: Anesthetic activity in po dosed human assessed as time duration for onset of action; type: functional
[40] = Elimination half life in Wistar rat at 20 mg/kg, iv by LC-MS analysis; type: ADME, organism-based; settings: in vivo, read-out: beta t1/2 (converted)
[41] = Displacement of [3H]-MK801 from NMDA receptor in dog brain homogenate incubated for 45 mins by liquid scintillation spectrometry; type: tissue-based, Canis lupus familiaris
Glutamate NMDA receptor [42] = assay: Displacement of [3H]-MK801 from NMDA receptor in rat brain membranes; type: cell membranes, Membrane
Glutamate NMDA receptor [43] = assay: Displacement of [3H]-MK801 from NMDA receptor in rat brain homogenate; type: tissue-based
[44] = Cmax in mouse brain at 10 mg/kg, ip measured after 10 mins; type: ADME, organism-based; set-up: route intraperitoneal, time 10 min, dose 10 mg/kg; settings: in vivo
[45] = Solubility of the compound in water; type: physicochemical

SMILES: CNC1(c2ccccc2Cl)CCCCC1=O (stereo not given) [KETAMINE]
- Time (Homo sapiens [1]): 15 min
- bioavailability [2]: 11%
- half-life [3]: 2 h
- pKi (Glutamate NMDA receptor [4]): 6.74
- pKi [5]: 6.74
- pKi [6]: 6.74
- fraction unbound [7]: 0.88
- pKi [8]: 6.74
- pKi (Glutamate NMDA receptor [9]): 6.74
- dose excreted [10]: 2%
- Time (Homo sapiens [11]): 5 min
- pKi (Glutamate NMDA receptor [12]): 6.74
- solubility [13]: 0.046 mg/mL (≈ 193 µM)
- pIC50 (Glutamate NMDA receptor [14]): 5.00
- pKi (Glutamate NMDA receptor [15]): 6.74
- pKi (Glutamate NMDA receptor [16]): 6.74
- bioavailability [17]: 24%
- pKi (Glutamate NMDA receptor [18]): 6.74
- pKi [19]: 6.74
- Time (Homo sapiens [20]): 0.5 h
- pKi [21]: 6.74
- bioavailability [22]: 8%
- pKi [23]: 6.74
- pKi (Glutamate NMDA receptor [24]): 6.74
- pKi (Glutamate NMDA receptor [25]): 6.74
- pKi (Glutamate NMDA receptor [26]): 6.74
- bioavailability [27]: 17%
- bioavailability [28]: 93%
- Time (Homo sapiens [29]): 1 min
- pKi [30]: 6.74
- pKi (Glutamate NMDA receptor [31]): 6.74
- Time (Homo sapiens [32]): 4 h
- Cmax [33]: 7.6 µM
- pKi [34]: 6.74
- pKi (Glutamate NMDA receptor [35]): 6.74
- pKi (Glutamate NMDA receptor [36]): 6.74
- pKi (Glutamate NMDA receptor [37]): 6.74
- F [38]: 100%
- Time (Homo sapiens [39]): 15 min
- half-life [40]: 8 h
- pKi [41]: 6.74

SMILES: CN[C@]1(c2ccccc2Cl)CCCCC1=O [ESKETAMINE]
- pKi (Glutamate NMDA receptor [42]): 6.16
- pKi (Glutamate NMDA receptor [43]): 6.52
- Cmax [44]: 7.33 µmol/kg

SMILES: CNC1(c2ccccc2Cl)CCCCC1=O.Cl (stereo not given) [KETAMINE HYDROCHLORIDE]
- solubility [45]: 200 mg/mL

SMILES: N[C@]1(c2ccccc2Cl)CCCCC1=O
- pKi (Glutamate NMDA receptor [42]): 5.65
- pKi (Glutamate NMDA receptor [43]): 5.77

SMILES: CN[C@@]1(c2ccccc2Cl)CCCCC1=O
- pKi (Glutamate NMDA receptor [42]): 5.59
- pKi (Glutamate NMDA receptor [43]): 5.85
- Cmax [44]: 7.93 µmol/kg
